Measured values taken from patent US12258327B2, “5-membered heteroaryl-containing aminopyridine compounds as EGFR inhibitors” (YUHAN CORPORATION, priority 2021, dated 2025).
Like-named read-outs stand apart in the source and are kept apart here.

Legend:
EGFR L858R/C797S = EGFR L858R/C797S (Homo sapiens, UniProt P00533, C797S/L858R); assay: Biochemical EGFR kinase assay (Lance Ultra TR-FRET), double mutant L858R/C797S
Method in brief: (§1)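 Enzyme reactions lasted 1 hour at room temperature with test compounds between 0.003 and 10 μM, followed by 10 mM EDTA quench.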

EGFR wildtype (WT) = EGFR wildtype (WT) (Homo sapiens, UniProt P00533); assay: Biochemical EGFR kinase assay (Lance Ultra TR-FRET), wildtype
Chain of EGFR wildtype (WT) (P00533 25-1210): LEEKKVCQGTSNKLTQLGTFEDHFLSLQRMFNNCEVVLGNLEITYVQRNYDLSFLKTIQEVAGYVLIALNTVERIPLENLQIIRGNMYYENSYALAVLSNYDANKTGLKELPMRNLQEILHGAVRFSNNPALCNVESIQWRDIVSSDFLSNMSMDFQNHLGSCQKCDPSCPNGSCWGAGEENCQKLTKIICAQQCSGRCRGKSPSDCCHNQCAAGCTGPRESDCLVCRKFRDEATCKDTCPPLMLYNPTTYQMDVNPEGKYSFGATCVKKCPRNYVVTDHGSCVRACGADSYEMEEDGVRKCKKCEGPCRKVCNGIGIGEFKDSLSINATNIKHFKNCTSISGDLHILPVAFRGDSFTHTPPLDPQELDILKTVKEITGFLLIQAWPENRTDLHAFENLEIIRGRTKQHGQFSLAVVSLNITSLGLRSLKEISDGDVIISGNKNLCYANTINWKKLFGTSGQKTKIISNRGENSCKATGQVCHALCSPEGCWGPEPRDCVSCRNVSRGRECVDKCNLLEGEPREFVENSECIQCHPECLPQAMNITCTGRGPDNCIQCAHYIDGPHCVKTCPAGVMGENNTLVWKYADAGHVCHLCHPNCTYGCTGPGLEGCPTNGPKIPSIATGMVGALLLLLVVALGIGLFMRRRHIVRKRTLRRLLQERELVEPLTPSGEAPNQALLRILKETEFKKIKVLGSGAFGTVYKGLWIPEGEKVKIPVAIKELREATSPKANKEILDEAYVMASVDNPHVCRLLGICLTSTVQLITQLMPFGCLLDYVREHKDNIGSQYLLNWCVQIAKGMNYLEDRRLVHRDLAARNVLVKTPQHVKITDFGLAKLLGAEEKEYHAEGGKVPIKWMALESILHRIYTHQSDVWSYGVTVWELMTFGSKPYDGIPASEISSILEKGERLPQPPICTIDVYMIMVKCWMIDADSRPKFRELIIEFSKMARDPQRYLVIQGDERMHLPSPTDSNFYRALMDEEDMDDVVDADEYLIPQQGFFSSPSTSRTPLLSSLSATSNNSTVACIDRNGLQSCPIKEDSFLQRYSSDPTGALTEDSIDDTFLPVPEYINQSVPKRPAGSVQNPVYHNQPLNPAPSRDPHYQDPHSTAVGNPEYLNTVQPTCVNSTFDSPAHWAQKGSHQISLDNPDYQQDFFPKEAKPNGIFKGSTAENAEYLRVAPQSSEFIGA
Method in brief: as §1

EGFR del19/T790M/C797S = EGFR del19/T790M/C797S (Homo sapiens, UniProt P00533, C797S/DEL746-750/T790M); assay: Biochemical EGFR kinase assay (Lance Ultra TR-FRET), triple mutant del19/T790M/C797S
Chain of EGFR del19/T790M/C797S (P00533 with tags, fused parts or gaps DEL746-750/T790M/C797S): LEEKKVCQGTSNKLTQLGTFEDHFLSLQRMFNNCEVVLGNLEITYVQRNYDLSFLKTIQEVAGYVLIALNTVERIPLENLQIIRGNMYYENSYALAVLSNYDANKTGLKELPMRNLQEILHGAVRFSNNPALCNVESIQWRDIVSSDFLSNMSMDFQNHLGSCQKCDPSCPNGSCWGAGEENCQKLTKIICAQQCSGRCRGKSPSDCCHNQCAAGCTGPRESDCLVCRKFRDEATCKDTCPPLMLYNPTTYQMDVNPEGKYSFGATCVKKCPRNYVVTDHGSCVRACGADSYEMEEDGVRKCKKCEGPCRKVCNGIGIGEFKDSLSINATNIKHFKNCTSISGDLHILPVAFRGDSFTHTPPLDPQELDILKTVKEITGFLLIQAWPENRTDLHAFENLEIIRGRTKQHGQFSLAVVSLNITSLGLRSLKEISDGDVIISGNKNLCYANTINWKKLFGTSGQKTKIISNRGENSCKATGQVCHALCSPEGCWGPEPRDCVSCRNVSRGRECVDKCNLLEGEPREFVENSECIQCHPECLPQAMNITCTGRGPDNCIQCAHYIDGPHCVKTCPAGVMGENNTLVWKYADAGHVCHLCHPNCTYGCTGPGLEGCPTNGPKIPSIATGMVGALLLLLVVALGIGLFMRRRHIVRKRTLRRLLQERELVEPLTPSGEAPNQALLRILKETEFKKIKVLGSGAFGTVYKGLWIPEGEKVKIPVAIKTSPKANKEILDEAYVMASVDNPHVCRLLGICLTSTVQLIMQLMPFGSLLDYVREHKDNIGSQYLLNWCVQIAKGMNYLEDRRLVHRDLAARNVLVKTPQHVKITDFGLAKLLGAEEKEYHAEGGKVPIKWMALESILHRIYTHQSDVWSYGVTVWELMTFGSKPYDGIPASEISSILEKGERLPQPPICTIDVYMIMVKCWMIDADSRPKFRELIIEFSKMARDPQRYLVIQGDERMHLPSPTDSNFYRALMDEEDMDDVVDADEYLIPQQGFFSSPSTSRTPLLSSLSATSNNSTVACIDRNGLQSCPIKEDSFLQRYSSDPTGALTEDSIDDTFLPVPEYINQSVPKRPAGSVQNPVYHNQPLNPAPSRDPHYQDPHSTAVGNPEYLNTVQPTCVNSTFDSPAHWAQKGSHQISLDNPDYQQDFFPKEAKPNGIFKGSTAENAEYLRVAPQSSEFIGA
Method in brief: as §1

EGFR L858R/T790M/C797S = EGFR L858R/T790M/C797S (Homo sapiens, UniProt P00533, C797S/L858R/T790M); assay: Biochemical EGFR kinase assay (Lance Ultra TR-FRET), triple mutant L858R/T790M/C797S
Chain of EGFR L858R/T790M/C797S (P00533 25-1210 T790M/C797S/L858R): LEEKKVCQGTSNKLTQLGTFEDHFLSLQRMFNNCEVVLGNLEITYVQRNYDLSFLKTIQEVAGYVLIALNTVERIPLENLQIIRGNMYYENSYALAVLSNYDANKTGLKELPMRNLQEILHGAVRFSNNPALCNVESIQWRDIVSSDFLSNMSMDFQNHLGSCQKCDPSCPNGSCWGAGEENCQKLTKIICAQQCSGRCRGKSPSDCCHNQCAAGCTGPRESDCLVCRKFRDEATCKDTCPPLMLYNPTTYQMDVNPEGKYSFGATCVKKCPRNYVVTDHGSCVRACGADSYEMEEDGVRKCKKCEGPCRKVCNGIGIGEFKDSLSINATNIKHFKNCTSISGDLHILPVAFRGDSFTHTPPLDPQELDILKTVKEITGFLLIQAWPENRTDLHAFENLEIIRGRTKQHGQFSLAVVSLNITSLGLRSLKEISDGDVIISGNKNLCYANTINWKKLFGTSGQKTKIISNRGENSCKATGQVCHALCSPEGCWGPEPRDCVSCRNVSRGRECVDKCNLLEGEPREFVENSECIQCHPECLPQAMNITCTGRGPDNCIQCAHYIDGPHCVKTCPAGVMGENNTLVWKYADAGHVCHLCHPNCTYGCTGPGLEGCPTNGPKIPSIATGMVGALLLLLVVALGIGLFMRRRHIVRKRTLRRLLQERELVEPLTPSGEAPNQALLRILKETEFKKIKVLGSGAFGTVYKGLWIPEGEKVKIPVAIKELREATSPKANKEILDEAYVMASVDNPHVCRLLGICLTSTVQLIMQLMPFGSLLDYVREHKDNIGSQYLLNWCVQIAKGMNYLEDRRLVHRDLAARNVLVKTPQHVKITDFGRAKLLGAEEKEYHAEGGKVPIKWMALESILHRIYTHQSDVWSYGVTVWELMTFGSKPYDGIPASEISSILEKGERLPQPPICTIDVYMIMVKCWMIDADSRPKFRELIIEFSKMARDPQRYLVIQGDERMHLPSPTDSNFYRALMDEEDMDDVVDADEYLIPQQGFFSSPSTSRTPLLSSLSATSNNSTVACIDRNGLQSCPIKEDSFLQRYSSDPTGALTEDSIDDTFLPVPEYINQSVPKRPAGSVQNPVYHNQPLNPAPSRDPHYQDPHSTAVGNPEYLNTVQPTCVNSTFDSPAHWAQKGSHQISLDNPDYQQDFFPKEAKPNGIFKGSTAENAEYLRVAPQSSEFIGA
Method in brief: as §1

EGFR del19/C797S = EGFR del19/C797S (Homo sapiens, UniProt P00533, C797S/DEL746-750); assay: Biochemical EGFR kinase assay (Lance Ultra TR-FRET), double mutant del19/C797S
Method in brief: as §1

[1] = IC50 L858R/C797S (nM) 100 μM ATP, 100 μM ATP
[2] = IC50 WT (nM) 100 μM ATP, 100 μM ATP
[3] = IC50 del19/T790M/C797S (nM) 100 μM ATP, 100 μM ATP
[4] = IC50 L858R/T790M/C797S (nM) 100 μM ATP, 100 μM ATP
[5] = IC50 del19/C797S (nM) 100 μM ATP, 100 μM ATP
[6] = Km ATP, read-out: IC50 L858R/C797S (nM) Km ATP
[7] = Km ATP, read-out: IC50 WT (nM) Km ATP
[8] = Km ATP, read-out: IC50 del19/T790M/C797S (nM) Km ATP
[9] = Km ATP, read-out: IC50 L858R/T790M/C797S (nM) Km ATP
[10] = Km ATP, read-out: IC50 del19/C797S (nM) Km ATP
[11] = Km ATP, read-out: IC50 L858R/C797S, Km ATP
[12] = Km ATP, read-out: IC50 WT, Km ATP
[13] = Km ATP, read-out: IC50 del19/T790M/C797S, Km ATP
[14] = Km ATP, read-out: IC50 L858R/T790M/C797S, Km ATP
[15] = Km ATP, read-out: IC50 del19/C797S, Km ATP

Chain of EGFR L858R/C797S (P00533 25-1210 C797S/L858R): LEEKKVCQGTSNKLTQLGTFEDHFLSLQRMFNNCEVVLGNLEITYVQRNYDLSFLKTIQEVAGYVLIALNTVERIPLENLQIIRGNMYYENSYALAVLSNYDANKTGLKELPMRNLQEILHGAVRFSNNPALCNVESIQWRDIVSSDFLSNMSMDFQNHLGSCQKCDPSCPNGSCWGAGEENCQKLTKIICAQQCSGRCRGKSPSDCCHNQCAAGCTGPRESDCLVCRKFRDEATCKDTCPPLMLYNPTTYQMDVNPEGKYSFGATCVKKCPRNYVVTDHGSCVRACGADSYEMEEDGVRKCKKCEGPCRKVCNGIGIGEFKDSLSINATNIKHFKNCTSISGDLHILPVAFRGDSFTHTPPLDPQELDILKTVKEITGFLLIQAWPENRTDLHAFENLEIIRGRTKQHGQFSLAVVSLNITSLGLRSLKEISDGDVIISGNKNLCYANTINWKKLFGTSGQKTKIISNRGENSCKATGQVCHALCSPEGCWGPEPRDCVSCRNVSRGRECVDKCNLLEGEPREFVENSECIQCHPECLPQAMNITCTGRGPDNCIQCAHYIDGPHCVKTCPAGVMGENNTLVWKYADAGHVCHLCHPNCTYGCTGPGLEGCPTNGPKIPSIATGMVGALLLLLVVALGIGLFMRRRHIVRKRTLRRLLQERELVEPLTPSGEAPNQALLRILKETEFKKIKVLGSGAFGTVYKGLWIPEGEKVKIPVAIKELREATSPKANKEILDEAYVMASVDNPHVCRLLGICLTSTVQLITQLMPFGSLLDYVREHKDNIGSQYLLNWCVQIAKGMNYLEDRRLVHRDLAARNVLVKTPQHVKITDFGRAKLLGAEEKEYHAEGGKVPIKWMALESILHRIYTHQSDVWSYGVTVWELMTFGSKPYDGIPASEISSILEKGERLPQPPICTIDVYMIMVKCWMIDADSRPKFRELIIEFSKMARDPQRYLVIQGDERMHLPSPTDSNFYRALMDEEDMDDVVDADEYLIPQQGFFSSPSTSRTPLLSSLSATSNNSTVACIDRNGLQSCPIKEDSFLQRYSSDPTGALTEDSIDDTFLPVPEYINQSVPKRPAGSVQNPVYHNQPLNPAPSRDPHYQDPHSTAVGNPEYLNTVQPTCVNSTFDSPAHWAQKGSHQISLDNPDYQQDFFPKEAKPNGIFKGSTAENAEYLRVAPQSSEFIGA

SMILES | IC50 (EGFR L858R/C797S; [1]) [nM] | IC50 (EGFR wildtype (WT); [2]) [nM] | IC50 (EGFR del19/T790M/C797S; [3]) [nM] | IC50 (EGFR L858R/T790M/C797S; [4]) [nM] | IC50 (EGFR del19/C797S; [5]) [nM] | IC50 (EGFR L858R/C797S; [6]) [nM] | IC50 (EGFR wildtype (WT); [7]) [nM] | IC50 (EGFR del19/T790M/C797S; [8]) [nM] | IC50 (EGFR L858R/T790M/C797S; [9]) [nM] | IC50 (EGFR del19/C797S; [10]) [nM] | further results
CN(C)CCNC1CCC(Nc2cc(Nc3ccnc(-c4cnn(S(=O)(=O)C5CC5)c4)n3)ncc2-c2csc(C(F)(F)F)n2)CC1 (stereo not drawn) [Example 98, N^2-(2-(1-(Cyclopropylsulfonyl)-1H-pyrazol-4-yl)pyrimidin-4-yl)-N^4-(4-((2-(dimethylamino)ethyl)amino)cyclohexyl)-5-(2-(trifluoromethyl)thiazol-4-yl)pyridine-2,4-diamine] | 7.7 | 1410 | 0.7 | 2.7 | 1.9 | – | – | – | – | – | –
CN[C@H]1CC[C@@H](Nc2cc(Nc3ccnc(-c4cnn(S(=O)(=O)C5CC5)c4)n3)ncc2-c2ccn(C)n2)CC1 [Example 88, N^2-(2-(1-(Cyclopropylsulfonyl)-1H-pyrazol-4-yl)pyrimidin-4-yl)-5-(1-methyl-1H-pyrazol-3-yl)-N^4-((1s,4s)-4-(methylamino)cyclohexyl)pyridine-2,4-diamine] | – | – | – | – | – | 0.3 | 3.2 | 0.2 | 0.1 | 0.5 | IC50 (EGFR L858R/C797S; read-out: IC50 L858R/C797S (nM) 100 μM ATP, 100 μM ATP): 3.1 nM; IC50 (EGFR wildtype (WT); read-out: IC50 WT (nM) 100 μM ATP, 100 μM ATP): 1980 nM; IC50 (EGFR del19/T790M/C797S; read-out: IC50 del19/T790M/C797S (nM) 100 μM ATP, 100 μM ATP): 0.3 nM; IC50 (EGFR L858R/T790M/C797S; read-out: IC50 L858R/T790M/C797S (nM) 100 μM ATP, 100 μM ATP): 0.3 nM; IC50 (EGFR del19/C797S; read-out: IC50 del19/C797S (nM) 100 μM ATP, 100 μM ATP): 1 nM
O=S(=O)(C1CC1)n1cc(-c2cc(Nc3ncc(-c4ccn(CCC(F)(F)F)n4)c(N[C@H]4CC[C@@H](F)CC4)n3)ccn2)cn1 [Example 367, N^2-(2-(1-(Cyclopropylsulfonyl)-1H-pyrazol-4-yl)pyridin-4-yl)-N^4-((1s,4s)-4-fluorocyclohexyl)-5-(1-(3,3,3-trifluoropropyl)-1H-pyrazol-3-yl)pyrimidine-2,4-diamine] | – | – | – | – | – | – | – | – | – | – | IC50 (EGFR L858R/C797S; [11]): 251 nM; IC50 (EGFR wildtype (WT); [12]): 5000 nM; IC50 (EGFR del19/T790M/C797S; [13]): 17.1 nM; IC50 (EGFR L858R/T790M/C797S; [14]): 7.2 nM; IC50 (EGFR del19/C797S; [15]): 391 nM
CC1(C)CC(Nc2cc(Nc3ccnc(-c4cnn(S(=O)(=O)C5CC5)c4)n3)ncc2-c2ccn(C(F)F)n2)CCC1O (stereo not drawn) [Example 106, 4-((2-((2-(1-(Cyclopropylsulfonyl)-1H-pyrazol-4-yl)pyrimidin-4-yl)amino)-5-(1-(difluoromethyl)-1H-pyrazol-3-yl)pyridin-4-yl)amino)-2,2-dimethylcyclohexan-1-ol] | 453 | 9960 | 3.9 | 2.6 | 22.7 | 19 | 46.9 | 3.9 | – | 19.6 | –
COc1ncc(-c2nccc(Nc3cc(N[C@H]4CC[C@@](C)(O)CC4)c(-c4ccn(C(F)F)n4)cn3)n2)cn1 [Example 312, (1s,4s)-4-((5-(1-(Difluoromethyl)-1H-pyrazol-3-yl)-2-((2′-methoxy-[2,5′-bipyrimidin]-4-yl)amino)pyridin-4-yl)amino)-1-methylcyclohexan-1-ol] | > 10000 | > 10000 | 2.4 | 6.6 | 353 | – | – | 1.3 | 1.3 | – | –
CC1(O)CCC(Nc2cc(Nc3ccnc(N4CC(CO)C(C)(C)C4)n3)ncc2-c2ccn(C(F)F)n2)CC1 (stereo not drawn) [Example 347, (1s,4s)-4-((5-(1-(Difluoromethyl)-1H-pyrazol-3-yl)-2-((2-(4-(hydroxymethyl)-3,3-dimethylpyrrolidin-1-yl)pyrimidin-4-yl)amino)pyridin-4-yl)amino)-1-methylcyclohexan-1-ol] | – | – | – | – | – | – | – | – | – | – | IC50 (EGFR L858R/C797S; IC50 L858R/C797S, 100 μM ATP): 449 nM; IC50 (EGFR L858R/C797S; [11]): 48.2 nM; IC50 (EGFR wildtype (WT); IC50 WT, 100 μM ATP): > 10000 nM; IC50 (EGFR wildtype (WT); [12]): 400 nM; IC50 (EGFR del19/T790M/C797S; IC50 del19/T790M/C797S, 100 μM ATP): 3.1 nM; IC50 (EGFR del19/T790M/C797S; [13]): 1.9 nM; IC50 (EGFR L858R/T790M/C797S; IC50 L858R/T790M/C797S, 100 μM ATP): 1.9 nM; IC50 (EGFR L858R/T790M/C797S; [14]): 0.7 nM; IC50 (EGFR del19/C797S; IC50 del19/C797S, 100 μM ATP): 329 nM; IC50 (EGFR del19/C797S; [15]): 99 nM
Cn1ccc(-c2cnc(Nc3ccnc(-c4cnn(S(=O)(=O)C5CC5)c4)n3)cc2N[C@H]2CC[C@](O)(CO)CC2)n1 [Example 221, (1s,4s)-4-((2-((2-(1-(Cyclopropylsulfonyl)-1H-pyrazol-4-yl)pyrimidin-4-yl)amino)-5-(1-methyl-1H-pyrazol-3-yl)pyridin-4-yl)amino)-1-(hydroxymethyl)cyclohexan-1-ol] | 4.9 | 1510 | 0.3 | 0.2 | 0.5 | 1 | 4.9 | 0.3 | 0.2 | 0.4 | –
COCn1ccc(-c2cnc(Nc3ccnc(-c4cnn(S(=O)(=O)C5CC5)c4)n3)cc2N[C@H]2CC[C@@H](C(C)(C)O)CC2)n1 [Example 299, 2-((1s,4s)-4-((2-((2-(1-(Cyclopropylsulfonyl)-1H-pyrazol-4-yl)pyrimidin-4-yl)amino)-5-(1-(methoxymethyl)-1H-pyrazol-3-yl)pyridin-4-yl)amino)cyclohexyl)propan-2-ol] | – | – | – | – | – | 0.5 | 5 | 1.1 | 0.3 | 4.1 | –
Cc1cn(-c2cnc(Nc3ccnc(-c4cnn(S(=O)(=O)C5CC5)c4)n3)cc2N[C@H]2CC[C@@](C)(O)CC2)nc1C(F)(F)F [Example 186, (1s,4s)-4-((2-((2-(1-(Cyclopropylsulfonyl)-1H-pyrazol-4-yl)pyrimidin-4-yl)amino)-5-(4-methyl-3-(trifluoromethyl)-1H-pyrazol-1-yl)pyridin-4-yl)amino)-1-methylcyclohexan-1-ol] | – | – | – | – | – | 30.4 | 166 | 1.3 | 0.4 | 32.9 | –
O=S(=O)(C1CC1)n1cc(-c2nccc(Nc3cc(NC4CCCC(F)C4)c(-c4ccn(C(F)F)n4)cn3)n2)cn1 (stereo not drawn) [Example 181, N^2-(2-(1-(Cyclopropylsulfonyl)-1H-pyrazol-4-yl)pyrimidin-4-yl)-5-(1-(difluoromethyl)-1H-pyrazol-3-yl)-N^4-(3-fluorocyclohexyl)pyridine-2,4-diamine] | – | – | – | – | – | 13.2 | 44.6 | 2.1 | 2.1 | 6.7 | –
O=S(=O)(C1CC1)n1cc(-c2nccc(Nc3cc(N[C@@H]4CCC[C@H](O)C4)c(-c4csc(C(F)(F)F)n4)cn3)n2)cn1 [Example 96, (1S,3R)-3-((2-((2-(1-(Cyclopropylsulfonyl)-1H-pyrazol-4-yl)pyrimidin-4-yl)amino)-5-(2-(trifluoromethyl)thiazol-4-yl)pyridin-4-yl)amino)cyclohexan-1-ol] | 690 | > 10000 | 3.5 | 6.2 | 159 | 22.7 | 418 | 2.7 | 2 | 89.1 | –
CN(C)CC1(C)CCC(Nc2cc(Nc3ccnc(-c4cnn(S(=O)(=O)C5CC5)c4)n3)ncc2-c2ccn(CC(F)F)n2)CC1 (stereo not drawn) [Example 246, N^2-(2-(1-(Cyclopropylsulfonyl)-1H-pyrazol-4-yl)pyrimidin-4-yl)-5-(1-(2,2-difluoroethyl)-1H-pyrazol-3-yl)-N^4-(4-((dimethylamino)methyl)-4-methylcyclohexyl)pyridine-2,4-diamine] | 400 | 4510 | 0.9 | 1.1 | 10.2 | 19.9 | 15.4 | 1 | 0.3 | 7.1 | –
CN(CC(F)F)C(=O)[C@H]1CC[C@@H](Nc2cc(Nc3ccnc(-c4cnn(S(=O)(=O)C5CC5)c4)n3)ncc2-c2ccn(C(F)F)n2)CC1 [Example 204, (1s,4s)-4-((2-((2-(1-(Cyclopropylsulfonyl)-1H-pyrazol-4-yl)pyrimidin-4-yl)amino)-5-(1-(difluoromethyl)-1H-pyrazol-3-yl)pyridin-4-yl)amino)-N-(2,2-difluoroethyl)-N-methylcyclohexane-1-carboxamide] | 36.1 | > 10000 | 0.9 | 0.8 | 4 | – | 9.5 | 0.9 | 0.4 | – | –
